Laboratory results: US6358885B1, “Substituted phenylheterocyclic herbicides” (Mississippi State University, priority 1992, dated 2002)

Assays:
[1] = system: wheat; test: Test C preemergence/postemergence greenhouse plant response rating 0 to 100; assay type: in vivo, Triticum aestivum; settings: POSTEMERGENCE
Summary of the method: (§1)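 Compounds in non-phytotoxic solvent went onto sandy loam before emergence (seeded one day earlier) or onto plants at the one-to-four leaf stage. Duck salad was treated via flood water (~2.5 cm, maintained) over silt loam.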

[2] = system: pigweed; test: as above; assay type: in vivo, Amaranthusretroflexus; settings: POSTEMERGENCE
Summary of the method: as §1

[3] = system: velvetleaf; test: as above; assay type: in vivo, Abutilon theophrasti; settings: POSTEMERGENCE
Summary of the method: as §1

[4] = system: sugar beet; test: Test B preemergence/postemergence greenhouse plant response rating 0 to 10; assay type: in vivo, Beta vulgaris; settings: 0 to 10 scale
Summary of the method: (§2)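 Planted seeds are treated preemergence with compound dissolved in a non-phytotoxic solvent, while postemergence applications go onto plants of two to eighteen cm. Plants stay in the greenhouse twelve to sixteen days and are then rated visually relative to controls.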

[5] = system: cotton; test: as above; assay type: in vivo, Gossypium hirsutum; settings: for Plant response rating, Cotton: 0 to 10 scale
Summary of the method: as §2

[6] = system: wild buckwheat; test: Test C preemergence/postemergence greenhouse plant response rating 0 to 100; assay type: in vivo, Polygonum convolvulus; settings: POSTEMERGENCE
Summary of the method: as §1

[7] = system: wheat; test: Test B preemergence/postemergence greenhouse plant response rating 0 to 10; assay type: in vivo, Triticum aestivum; settings: 0 to 10 scale
Summary of the method: as §2

[8] = system: corn; test: as above; assay type: in vivo, Zea mays; settings: for Plant response rating, Corn: 0 to 10 scale
Summary of the method: as §2

[9] = system: sorghum; test: as above; assay type: in vivo, Sorghum bicolor; settings: 0 to 10 scale
Summary of the method: as §2

[10] = system: blackgrass; test: as above; assay type: in vivo, Alopecurus myosuroides; settings: for Plant response rating, Blackgrass: 0 to 10 scale
Summary of the method: as §2

[11] = system: barnyardgrass; test: Test C flood test plant response rating 0 to 100; assay type: in vivo, Echinochloa crus-galli
From the text: (§3) The compounds evaluated in this test were formulated in a non-phytoxic solvent and applied to the soil surface before plant seedlings emerged (preemergence application), to water that covered the soil surface (flood application), and to plants that were in the one-to-four leaf stage (postemergence application). A sandy loam soil was used for the preemergence and postemergence tests, while a silt loam soil was used in the flood test. Water depth was approximately 2.5 cm for the flood test and was maintained at this level for the duration of the test. Plant species in the preemergence and postemergence tests consisted of barley (Hordeum vulgare), bedstraw (Galium aparine), blackgrass (Alopecurus myosuroides), chickweed (Stellaria media), corn (Zea mays), cotton (Gossypium hirsutum), crabgrass (Digitaria sanguinalis), downy brome (Bromus tectorum), giant foxtail (Setaria faberii), lambsquarters (Chenopodium album), morningglory (Ipomoea hederacea), pigweed ([…]), rape (Brassica napus), ryegrass (Lolium multiflorum), sorghum (Sorghum bicolor), soybean (Glycine max), speedwell (Veronica persica), sugar beet (Beta vulgaris), velvetleaf (Abutilon theophrasti), wheat (Triticum aestivum), wild buckwheat (Polygonum convolvulus), and wild oat (Avena fatua). All plant species were planted one day before application of the compound for the preemergence portion-of this test. Plantings of these species were adjusted to produce plants of appropriate size for the post-emergence portion of the test. […] All plant species were grown using normal greenhouse practices. Visual evaluations of injury expressed on treated plants, when compared to untreated controls, were recorded approximately fourteen to twenty one days after application of the test compound. […] A dash (-) response means no test result.

[12] = system: wild oat; test: Test B preemergence/postemergence greenhouse plant response rating 0 to 10; assay type: in vivo, Avena fatua; settings: POSTEMERGENCE, 0 to 10 scale
Summary of the method: as §2

[13] = system: rice; test: as above; assay type: in vivo, Oryza sativa; settings: 0 to 10 scale
Summary of the method: as §2

[14] = system: crabgrass; test: as above; assay type: in vivo, Digitaria spp.; settings: for Plant response rating, Crabgrass: 0 to 10 scale
Summary of the method: as §2

[15] = system: purple nutsedge; test: as above; assay type: in vivo, Cyperus rotundus; settings: 0 to 10 scale
Summary of the method: as §2

[16] = system: duck salad; test: Test C flood test plant response rating 0 to 100; assay type: in vivo, Heteranthera limosa
From the text: as §3

[17] = system: lambsquarters; test: Test C preemergence/postemergence greenhouse plant response rating 0 to 100; assay type: in vivo, Chenopodium album; settings: POSTEMERGENCE
Summary of the method: as §1

[18] = system: cotton; test: as above; assay type: in vivo, Gossypium hirsutum; settings: POSTEMERGENCE
Summary of the method: as §1

[19] = POSTEMERGENCE section, flood test, Rate 1 g/ha
[20] = Rate 16 g/ha, under POSTEMERGENCE head (flood test species)
[21] = flood test species listed under POSTEMERGENCE, 62 g/ha, 0 to 100 scale

CC(C)N1C(=O)COc2cc(F)c(-c3nn4c(c3Cl)CCCC4)cc21 [Compound 31]
Plant response rating, Wheat ([1]; 62 g/ha, 0 to 100 scale): 40
Plant response rating (0 to 100), Wheat ([1]; Rate 1 g/ha): 10
Plant response rating (0 to 100), Wheat ([1]; Rate 4 g/ha): 30
Plant response rating (0 to 100), Wheat ([1]; Rate 16 g/ha): 30
Plant response rating Pigweed ([2]; 62 g/ha, 0 to 100 scale): 100
Plant response rating (0 to 100), Pigweed ([2]; Rate 1 g/ha): 95
Plant response rating (0 to 100), Pigweed ([2]; Rate 4 g/ha): 100
Plant response rating (0 to 100), Pigweed ([2]; Rate 16 g/ha): 100
Plant response rating, Velvetleaf ([3]; 62 g/ha, 0 to 100 scale): 100
Plant response rating (0 to 100), Velvetleaf ([3]; Rate 1 g/ha): 85
Plant response rating (0 to 100), Velvetleaf ([3]; Rate 4 g/ha): 95
Plant response rating (0 to 100), Velvetleaf ([3]; Rate 16 g/ha): 100
Plant response rating, Sugar beet ([4]; POSTEMERGENCE, Rate 10 g/ha): 10
Plant response rating, Sugar beet ([4]; POSTEMERGENCE, Rate 50 g/ha): 10
Plant response rating, Sugar beet ([4]; PREEMERGENCE, Rate 50 g/ha): 10
Plant response rating, Cotton ([5]; POSTEMERGENCE, Rate 10 g/ha): 10
Plant response rating (0 to 10 scale), Cotton ([5]; POSTEMERGENCE, Rate 50 g/ha): 10
Plant response rating, Cotton ([5]; PREEMERGENCE, Rate 10 g/ha): 0
Plant response rating, Cotton ([5]; PREEMERGENCE, Rate 50 g/ha): 0
Plant response rating, Wild buckwheat ([6]; 62 g/ha, 0 to 100 scale): 100
Plant response rating (0 to 100), Wild buckwheat ([6]; Rate 1 g/ha): 70
Plant response rating (0 to 100), Wild buckwheat ([6]; Rate 4 g/ha): 70
Plant response rating (0 to 100), Wild buckwheat ([6]; Rate 16 g/ha): 100
Plant response rating, Wheat ([7]; POSTEMERGENCE, Rate 10 g/ha): 5
Plant response rating, Wheat ([7]; POSTEMERGENCE, Rate 50 g/ha): 5
Plant response rating, Wheat ([7]; PREEMERGENCE, Rate 50 g/ha): 1
Plant response rating, Corn ([8]; POSTEMERGENCE, Rate 10 g/ha): 4
Plant response rating (0 to 10 scale), Corn ([8]; POSTEMERGENCE, Rate 50 g/ha): 3
Plant response rating, Corn ([8]; PREEMERGENCE, Rate 50 g/ha): 0
Plant response rating, Sorghum ([9]; POSTEMERGENCE, Rate 10 g/ha): 5
Plant response rating, Sorghum ([9]; POSTEMERGENCE, Rate 50 g/ha): 4
Plant response rating, Sorghum ([9]; PREEMERGENCE, Rate 50 g/ha): 0
Plant response rating, Blackgrass ([10]; POSTEMERGENCE, Rate 10 g/ha): 4
Plant response rating (0 to 10 scale), Blackgrass ([10]; POSTEMERGENCE, Rate 50 g/ha): 4
Plant response rating, Blackgrass ([10]; PREEMERGENCE, Rate 10 g/ha): 3
Plant response rating, Blackgrass ([10]; PREEMERGENCE, Rate 50 g/ha): 6
Plant response rating (0 to 100), Barnyardgrass [11, 19]: 20
Plant response rating (0 to 100), Barnyardgrass ([11]; Rate 4 g/ha, under POSTEMERGENCE head (flood test species)): 65
Plant response rating (0 to 100), Barnyardgrass [11, 20]: 90
Plant response rating, Barnyardgrass [11, 21]: 100
Plant response rating, Wild oat ([12]; Rate 10 g/ha): 5
Plant response rating, Wild oat ([12]; Rate 50 g/ha): 6
Plant response rating, Rice ([13]; POSTEMERGENCE, Rate 10 g/ha): 4
Plant response rating, Rice ([13]; POSTEMERGENCE, Rate 50 g/ha): 7
Plant response rating, Rice ([13]; PREEMERGENCE, Rate 50 g/ha): 0
Plant response rating, Crabgrass ([14]; POSTEMERGENCE, Rate 10 g/ha): 4
Plant response rating (0 to 10 scale), Crabgrass ([14]; POSTEMERGENCE, Rate 50 g/ha): 4
Plant response rating, Crabgrass ([14]; PREEMERGENCE, Rate 10 g/ha): 0
Plant response rating, Crabgrass ([14]; PREEMERGENCE, Rate 50 g/ha): 2
Plant response rating, Nutsedge ([15]; POSTEMERGENCE, Rate 10 g/ha): 2
Plant response rating, Nutsedge ([15]; POSTEMERGENCE, Rate 50 g/ha): 5
Plant response rating, Nutsedge ([15]; PREEMERGENCE, Rate 50 g/ha): 0
Plant response rating (0 to 100), Duck salad [16, 19]: 0
Plant response rating (0 to 100), Duck salad ([16]; POSTEMERGENCE section, flood test, Rate 4 g/ha): 0
Plant response rating (0 to 100), Duck salad [16, 20]: 40
Plant response rating Duck salad [16, 21]: 40
Plant response rating Lambsquarters ([17]; 62 g/ha, 0 to 100 scale): 95
Plant response rating (0 to 100), Lambsquarters ([17]; Rate 1 g/ha): 40
Plant response rating (0 to 100), Lambsquarters ([17]; Rate 16 g/ha): 85
Plant response rating, Cotton ([18]; 62 g/ha, 0 to 100 scale): 100
Plant response rating (0 to 100), Cotton ([18]; Rate 1 g/ha): 90
Plant response rating (0 to 100), Cotton ([18]; Rate 4 g/ha): 100
Plant response rating (0 to 100), Cotton ([18]; Rate 16 g/ha): 100
